Results: patent publication US20040121031A1, “Novel topical skin care and nutraceutical applications of Glabridin or extracts containing a defined amount (4-90%) of Glabridin” (priority 2002, published 2004)

Assay: Ease of solubility in cosmetically acceptable solvents
Type: physicochemical
Details: in contrast to Ursolic acid
Excerpt: In order to formulate an effective cosmetic product, the individual ingredients have to be solublized in cosmetically acceptable solvents. The following table indicates the ease of solubility of glabridin and the licorice extract in contrast to Ursolic acid, a terpenoid compound used in cosmetics for similar claims.

With `CC1(C)C=Cc2c(ccc3c2OC[C@@H](c2ccc(O)cc2O)C3)O1` [glabridin, Glabridin] as the molecule, how does the ease of solubility read?
The ease of solubility was “much more easily soluble than Ursolic acid”.
